Series [1] concerns the target rat brain nicotinic receptor (α7 NAChR) (Rattus norvegicus (Rat), UniProt Q05941). The class given is binding.
Series [2] in a line: Metabolic stability assay in rat liver microsomes (RLM). The class given is in vitro ADME. As to conditions: 1 μM. Put shortly: (§1)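 In Protocol 1, compound was 1 μM final with NADPH at 37 °C, sampled at 0–45 min. In Protocol 2, 1.5 μM compound with 0.75 mg/mL microsomes (pre-NADPH mix) in 0.1 M potassium phosphate, 1 mM EDTA, pH 7.4 was pre-incubated 10 min, then NADPH started the reaction. Both: LC-MS/MS % remaining versus time 0, half-life from single-phase exponential fit.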

Series [3] can be described thus: Human plasma stability. It counts as in vitro ADME. To be noted: plasma; for % Remaining @ 2 h: 5 μM. Summed up: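 Compound remaining was quantified by LC-MS/MS as peak-area ratio to internal standard relative to time 0, with half-lives from single-exponential fits. Protocol 1 incubated 1 μM in heparinized human plasma (pH 7.4, 37° C) to 120 min; protocol 2 used 5 μM, pH 7.4–8.0, 37° C, n=2, to 120 min.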

Series [4] in a line: Metabolic stability assay in human liver microsomes (HLM). The class given is in vitro ADME. To be noted: 1 μM. Summed up: as §1
(Liver microsomes are vesicles of endoplasmic reticulum, rich in cytochrome P450 enzymes.)

Chain of rat brain nicotinic receptor (α7 NAChR) (Q05941 23-502 limits assumed): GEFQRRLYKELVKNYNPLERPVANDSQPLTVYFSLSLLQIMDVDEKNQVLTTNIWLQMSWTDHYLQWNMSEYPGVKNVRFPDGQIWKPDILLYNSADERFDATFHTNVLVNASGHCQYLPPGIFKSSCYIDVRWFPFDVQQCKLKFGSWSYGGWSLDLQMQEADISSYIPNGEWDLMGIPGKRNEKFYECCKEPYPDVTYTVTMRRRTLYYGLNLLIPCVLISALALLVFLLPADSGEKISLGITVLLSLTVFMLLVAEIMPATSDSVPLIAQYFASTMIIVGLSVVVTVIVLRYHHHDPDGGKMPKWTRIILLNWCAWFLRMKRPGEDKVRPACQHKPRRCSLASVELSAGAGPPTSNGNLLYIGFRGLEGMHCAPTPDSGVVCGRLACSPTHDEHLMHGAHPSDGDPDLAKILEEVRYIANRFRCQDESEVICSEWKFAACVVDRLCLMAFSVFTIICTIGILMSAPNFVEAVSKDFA

As a reminder, the IC50 is the concentration needed to halve the response being measured. Low readings indicate greater potency in that assay, high ones weaker potency in that assay. In general, Ki refers to a measure of affinity in units of concentration, obtained from inhibition or displacement. Low readings indicate higher affinity, high ones lower affinity. In series [1], `O=C(OCC12CCN(CC1)CC2)c1c[nH]c2cc(O)cc(Cl)c12` [Compound 46, quinuclidin-4-ylmethyl 4-chloro-6-hydroxy-1H-indole-3-carboxylate] returned an IC50 of 33.4 nM and a Ki of 28.6 nM. The same molecule displayed an RLM in series [2] (rat, microsomes) of 32.4827 mL/min/kg. In addition, the “% Remaining @ 2 h” value in series [3] (human, 2 h) came to 91.9%. Further, the HLM in series [4] (human, microsomes) turned out to be 7.385 mL/min/kg.

`Cc1cc(Cl)c2c(C(=O)OCC34CCN(CC3)CC4)c[nH]c2c1.Cl` [Compound 65, quinuclidin-4-ylmethyl 4-chloro-6-methyl-1H-indole-3-carboxylate hydrochloride]: in series [1], 63.6 nM corresponded to half-maximal inhibition (IC50) and the Ki is 54.6 nM. Moreover, in series [2] (Protocol No. 1, rat liver microsomes), the RLM is given as 286.666 mL/min/kg. Further, in series [3] (Protocol No. 2, 37° C.), the “% Remaining @ 2 h” value came out at 72.66%. This molecule displayed an HLM in series [4] (Protocol No. 1, human liver microsomes) of 2.253 mL/min/kg.

With `COc1c(OCC(F)(F)F)ccc2[nH]cc(C(=O)OCC34CCN(CC3)CC4)c12` [Compound 88, quinuclidin-4-ylmethyl 4-methoxy-5-(2,2,2-trifluoroethoxy)-1H-indole-3-carboxylate], the RLM in series [2] (rat, microsomes) was 25.96 mL/min/kg. The T1/2 entry in series [3] (human) was “∞”. The “% Remaining @ 2 h” value in series [3] (human, 2 h) came out at 110.47%. Besides, the HLM in series [4] (human, microsomes) worked out at 3.31 mL/min/kg.

The values are drawn from patent US9434724B2, “Quinuclidines for modulating alpha 7 activity” (priority 2014, dated 2016).
